Values quoted from earlier work, collected in patent US12285413B2 (priority 2020, dated 2025).

Columns and labels:
MERS-CoV = settings: multiple in vitro systems, including primary human airway epithelial cell cultures
SARS-CoV [1] = settings: multiple in vitro systems, including primary human airway epithelial cell cultures
SARS-CoV [2] = settings: mouse, prophylactic and early therapeutic administration
glucocorticoid receptor = glucocorticoid receptor (Homo sapiens, UniProt P04150); settings: relative to cortisol
glucocorticoid receptor, sequence (P04150 whole entry): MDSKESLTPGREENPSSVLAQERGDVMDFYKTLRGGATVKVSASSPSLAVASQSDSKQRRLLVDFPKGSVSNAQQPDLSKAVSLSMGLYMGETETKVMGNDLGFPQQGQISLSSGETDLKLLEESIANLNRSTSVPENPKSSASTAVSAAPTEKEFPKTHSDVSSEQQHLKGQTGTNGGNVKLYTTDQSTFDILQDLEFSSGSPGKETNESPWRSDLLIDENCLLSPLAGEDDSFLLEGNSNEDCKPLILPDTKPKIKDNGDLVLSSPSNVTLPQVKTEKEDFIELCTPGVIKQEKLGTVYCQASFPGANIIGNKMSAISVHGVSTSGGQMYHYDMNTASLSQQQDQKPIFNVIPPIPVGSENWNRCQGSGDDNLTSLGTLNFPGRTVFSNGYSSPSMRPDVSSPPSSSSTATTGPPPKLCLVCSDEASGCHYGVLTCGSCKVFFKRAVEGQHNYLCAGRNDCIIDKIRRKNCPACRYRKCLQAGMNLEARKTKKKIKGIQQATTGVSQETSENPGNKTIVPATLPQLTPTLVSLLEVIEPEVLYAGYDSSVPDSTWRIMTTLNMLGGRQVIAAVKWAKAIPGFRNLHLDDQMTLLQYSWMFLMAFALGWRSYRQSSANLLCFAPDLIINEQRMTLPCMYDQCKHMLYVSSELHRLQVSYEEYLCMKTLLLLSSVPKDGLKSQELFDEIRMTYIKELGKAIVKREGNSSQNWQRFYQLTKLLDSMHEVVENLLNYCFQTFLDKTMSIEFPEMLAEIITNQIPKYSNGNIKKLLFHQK

## CCN(CCO)CCCC(C)Nc1ccnc2cc(Cl)ccc12 (stereo not shown) [Hydroxychloroquine]
coronavirus
  effect on coronavirus replication in in-vitro systems: inhibitory effects

## CCC(CC)COC(=O)[C@H](C)N[P@](=O)(OC[C@H]1O[C@@](C#N)(c2ccc3c(N)ncnn23)[C@H](O)[C@@H]1O)Oc1ccccc1 [Remdesivir]
SARS-CoV-2
  antiviral activity in SARS-CoV-2 in-vitro models: antiviral activity
MERS-CoV
  EC50, inhibition of MERS-CoV replication: submicromolar
SARS-CoV [1]
  EC50, inhibition of SARS-CoV replication: submicromolar
SARS-CoV [2]
  lung viral load: reduced lung viral load
  respiratory function: improved respiratory function

## C[C@@H]1C[C@H]2[C@@H]3CCC4=CC(=O)C=C[C@]4(C)[C@@]3(F)[C@@H](O)C[C@]2(C)[C@@]1(O)C(=O)CO [dexamethasone]
Glucocorticoid receptor
  anti-inflammatory and immunosuppressive potency versus cortisol: approximately 30 times
